Measurements reported in patent publication US9249184B2, “Cardiac-specific protein targeting domain” (University of Pittsburgh—of the Commonwealth System of …, priority 2010, dated 2016).
Ends that are not written are not given here.

Tests used:
[1] = system: heart, liver, lung, spleen, kidney, skeletal muscle and brain; test: In vivo tissue transduction by biotinylated peptides coupled to Streptavidin-Alexa488 (confocal microscopy); design: species or system Balb/c mice; settings: 10 mg/Kg i.v.; 30 minutes post-injection
Description: In vivo imaging studies. The initial in vivo targeting studies were performed using CTP-6CF. Female Balb/C mice were injected retro-orbitally with CTP-6CF (25 mg/Kg) and euthanized 15 minutes later, Heart cross-sections were stained for actin using phalloidin Alexa-647 (Molecular Probes, A22287) and stained for laminin using a rabbit anti-laminin antibody followed by a goat anti-rabbit Cy3 (Jackson ImmunoResearch, 111-167-003) secondary antibody. Five non-overlapping sections were taken from each heart for quantification of green fluorescence (CTP-6CF) expressed as a percentage of total area (blue; stained for actin). A control peptide (CON; […]; SEQ ID NO:15), picked from the original, unselected M13 phage library, CTP and 8-Lysine (8K, a homopolymer of lysine), a known cationic protein transduction domain, were synthesized in a biotinylated form. 200 mM of biotinylated CTP, CON and 8K, or equivalent volume of PBS, were incubated with 10 ul of Streptavidin-Alexa488 (2 ng/ml; Molecular Probes, 532354) for 2 hours at room temperature. Female Balb/c mice were intravenously (retro-orbitally) injected with peptides at a dose of 10 mg/Kg and then euthanized 30 minutes post-injection. […] For confocal microscopy, laser intensities/gains were set using negative control (PBS injected) heart tissue to minimize background fluorescence. […]

[2] = in vitro phage display; cited from earlier work
[3] = in vitro phage display; cited from earlier work; remark: listed apart in the source
[4] = system: myocardial infarct; test: Murine infarct model (left artery ligation); format: in vivo, Balb/c mice; settings: 8K-NBD study; 5 mg/Kg/injection i.p. post-op day 0, 1, 2; day 7; vs PBS
Excerpt: The following protocol was used and kept consistent from one set of experiments to another and between groups. Female, Balb/c, 10-20 week old mice were used for these set of studies. Female mice were chosen because of the ability to house 5/cage, as opposed to male mice (4/cage) and more importantly because female mice are able to tolerate cardiac insults better with lower post-operative mortality (19). Mice were anesthetized with intraperitoneal (i.p.) injection of 2.5% Avertin (a mixture of 15.5 ml tert-amyl alcohol to 25 grams of 2-2-2 Tribromoethanol-stock solution diluted to 2.5% concentration with PBS) at a dose of 15 μl/gm of body weight. Adequate anesthetic level was assessed by lack of response to toe-pinch and lack of a gag reflex. Mice were intubated, using direct visualization of the vocal chords, with a 22 G cannula and placed on a Harvard rodent ventilator apparatus. Tube placement was confirmed by symmetric expansion of the thoracic cavity. Mice were ventilated with ˜0.1 cc/breath tidal volume at a rate of 110 breaths/minute. […]
Mice were euthanized on post-operative day 7. […] The three sections were H&E stained, light microscopy photographs taken, and area of infarct in each section mapped out using computer software Metamorph and expressed as a percent of the whole heart. […]

[5] = system: apoptosis in heart; test: TUNEL staining of heart cross-sections in the murine infarct model; format: in vivo, Balb/c mice; settings: 8K-NBD study; 5 mg/Kg/injection i.p. post-op day 0, 1, 2; day 7
Description: A cross-section from each heart was taken and apoptosis assessed by TUNEL staining. The nuclei were stained with Dapi, and the number of TUNEL positive nuclei expressed as a percentage of total nuclei in each field. The whole heart cross-section was taken into consideration by taking 5-6 contiguous, non-overlapping sections from each heart. […] FIG. 18 illustrates the TUNEL staining data in a quantitative manner.

[6] = system: human heart tissue; test: Ex vivo transduction of human explanted heart slices (confocal microscopy); settings: separate explanted heart; 500 ul of 1 mM solution; 30 mins at 37° C.
Description: Human explanted hearts were obtained from the operating rooms of UPMC at the time of ongoing heart transplants. Heart tissue was dissected from the proximal part or the base of the heart to avoid the more scarred, infarcted, distal tissue. Small 1-2 mm thick slices of heart tissue were taken and incubated with CTP-6CF (500 ul of a 1 mM solution) or PBS, for 30 and 60 mins, at 37° C./5% CO2. At the end of the incubation period, the heart slices were washed in PBS 6 times, fixed in 2% paraformaldehyde for 4 hrs at room temperature, followed by 30% sucrose overnight at 4° C. Next day the tissue was frozen in liquid nitrogen-chilled isopentane and stored 58
at −80° C., for later cryosectioning, cross-staining with DRAQ5 and confocal microscopy. Confocal micrographs were obtained avoiding the edges because of the necessary damage associated with dissecting the heart tissue pieces. Confocal micrographs were taken 3-4 cell layers away from any edges.
To investigate if this transduction was indeed peptide specific, and not secondary to increased membrane leakiness resulting from tissue being ischemic, we incubated thin, 1-2 mm thick, heart slices, from a separate explanted heart, in only 6CF in PBS, CTP-6CF, RAN-6CF as well as 6CF labeled 6-Arginine, a known PTD. We also incubated heart slices with Evans blue dye (EBD) to assess for membrane leakiness. […]

## CON-SA488: biotinylated control peptide CON (ARPLEHGSDKAT) coupled to Streptavidin-Alexa488 (also: biotinylated, coupled to streptavidin-Alexa488)
[1]
  uptake in any organ: did not show appreciable uptake

## APWHLSSQYSRT [CTP]
[2]
  affinity for binding to apatite-based, bone-like minerals: high affinity
[3]
  affinity for binding to two specific sulfated carbohydrates: high affinity

## KKKKKKKK-TTLDASALQME (KKKKKKKKTTLDASALQME) [8K-mutNBD]
[4]
  heart-weight to body-weight ratio: did not differ
  infarct size: worse
[5]
  TUNEL positive (apoptotic) nuclei: lesser number of apoptotic nuclei

## Cc1cc(-c2ccc(/N=N/c3ccc4c(S(=O)(=O)[O-])cc(S(=O)(=O)[O-])c(N)c4c3O)c(C)c2)ccc1/N=N/c1ccc2c(S(=O)(=O)[O-])cc(S(=O)(=O)[O-])c(N)c2c1O.[Na+].[Na+].[Na+].[Na+] [EBD, Evans blue dye]
[6]
  uptake in human heart slices ex vivo (confocal microscopy): did not show any fluorescence

## O=C(O)c1ccc2c(c1)C1(OC2=O)c2ccc(O)cc2Oc2cc(O)ccc21 [6CF, 6-carboxyfluorescene]
[6]
  uptake in human heart slices ex vivo (confocal microscopy): occasional cells showing fluorescence
